Measured values from patent EP4748837A1, “AROMATIC AMIDE DERIVATIVE, AND PREPARATION METHOD THEREFOR AND USE THEREOF” (Zhejiang Hisun Pharmaceutical Co., Ltd., priority 2023, dated 2025).

How the values were obtained:
[1] = Pharmacokinetic testing in mice after intragastric administration; type: in vivo; conditions: ICR mice; for area under the curve (in words) / pharmacokinetic properties (in words) / plasma concentration (in words): oral 10 mg/kg, conclusion; for AUC(0-inf) / half-life / Cmax: male, mouse, oral administration 10 mg/kg, plasma; for AUC(0-inf): read-out: Area under the curve AUC0-∞; for half-life: read-out: Half-life period T1/2 (converted); for Cmax: read-out: Plasma concentration Cmax
Description: ICR mice were taken as test animals, and intragastrically administered with a control compound AMG650 and compounds 47 and 53 of the present invention, and then drug concentrations in plasma at different moments were determined by an LC/MS/MS method, so as to study pharmacokinetic characteristics of the compounds of the present invention in the mice.
Control compound AMG650, and Compounds 47 and 53.
ICR mice, male, 20-22 g, purchased from Vital River Laboratory Animal Technology Co., Ltd.
A proper amount of to-be-tested compound was weighed, proper amounts of DMA, 30% HS-15 and Saline were added in sequence, and the mixture was well mixed by ultrasonic vortex to prepare 1 mg/mL drug preparations respectively, wherein […]: 30% HS-15: Saline=5: 5: 90 (v: v: v).
ICR mice in each to-be-tested compound injection group (9 mice in each group) were fasted overnight and then intragastrically administered with the compound (PO, an administration dosage of the compound was 10 mg/kg and an administration volume of the compound was 10 mL/kg), and were fed 4 hours after administration.
0.25 hours, 0.5 hours, 1 hour, 2 hours, 4 hours, 6 hours, 8 hours and 24 hours before and after administration, about […] of blood was collected through an orbit, and a complete blood sample was placed in an EDTA-K2-containing anticoagulation tube. The collected blood samples were placed on ice, and plasma was centrifugally separated (centrifugation conditions: 1500 g, 10 minutes). The collected plasma was stored at -40°C - -20°C before analysis.
A content of the to-be-tested compound in the plasma of the mice after intragastric administration was determined by LC-MS/MS.

recombinant human KIF18A = molecular target: T1, recombinant human KIF18A (Homo sapiens, UniProt Q8NI77); assay: Inhibition of KIF18A enzyme activity (ADP-Glo assay); type: biochemical; conditions: recombinant human KIF18A 100 nM, ATP 60 µM, tubulin, paclitaxel; read-out: IC50
T1 construct: purchased GenScript
T1 sequence (Q8NI77 whole entry): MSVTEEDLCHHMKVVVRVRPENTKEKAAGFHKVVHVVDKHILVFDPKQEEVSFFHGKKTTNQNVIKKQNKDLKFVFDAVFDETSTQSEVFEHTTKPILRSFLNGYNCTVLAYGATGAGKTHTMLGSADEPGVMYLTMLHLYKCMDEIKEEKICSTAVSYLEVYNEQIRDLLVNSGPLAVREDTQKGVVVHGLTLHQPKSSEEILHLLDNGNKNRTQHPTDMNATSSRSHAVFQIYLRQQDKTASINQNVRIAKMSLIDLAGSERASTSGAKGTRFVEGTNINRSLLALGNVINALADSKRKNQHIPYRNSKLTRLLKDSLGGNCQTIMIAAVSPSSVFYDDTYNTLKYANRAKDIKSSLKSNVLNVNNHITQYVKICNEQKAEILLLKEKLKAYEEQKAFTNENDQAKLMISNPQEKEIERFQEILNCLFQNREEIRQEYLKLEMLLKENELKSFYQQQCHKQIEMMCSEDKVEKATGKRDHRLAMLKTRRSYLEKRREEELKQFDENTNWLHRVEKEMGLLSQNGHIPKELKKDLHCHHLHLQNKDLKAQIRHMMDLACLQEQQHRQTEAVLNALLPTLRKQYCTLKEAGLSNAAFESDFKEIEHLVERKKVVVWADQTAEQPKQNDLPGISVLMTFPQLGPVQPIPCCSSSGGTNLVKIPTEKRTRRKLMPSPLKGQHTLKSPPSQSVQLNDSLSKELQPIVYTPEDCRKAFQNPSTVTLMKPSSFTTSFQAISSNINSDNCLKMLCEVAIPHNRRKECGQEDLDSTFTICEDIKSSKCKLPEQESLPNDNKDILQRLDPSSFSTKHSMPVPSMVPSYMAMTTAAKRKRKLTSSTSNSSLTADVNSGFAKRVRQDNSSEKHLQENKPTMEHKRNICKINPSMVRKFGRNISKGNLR
T1 sequence (P68363 whole entry partner): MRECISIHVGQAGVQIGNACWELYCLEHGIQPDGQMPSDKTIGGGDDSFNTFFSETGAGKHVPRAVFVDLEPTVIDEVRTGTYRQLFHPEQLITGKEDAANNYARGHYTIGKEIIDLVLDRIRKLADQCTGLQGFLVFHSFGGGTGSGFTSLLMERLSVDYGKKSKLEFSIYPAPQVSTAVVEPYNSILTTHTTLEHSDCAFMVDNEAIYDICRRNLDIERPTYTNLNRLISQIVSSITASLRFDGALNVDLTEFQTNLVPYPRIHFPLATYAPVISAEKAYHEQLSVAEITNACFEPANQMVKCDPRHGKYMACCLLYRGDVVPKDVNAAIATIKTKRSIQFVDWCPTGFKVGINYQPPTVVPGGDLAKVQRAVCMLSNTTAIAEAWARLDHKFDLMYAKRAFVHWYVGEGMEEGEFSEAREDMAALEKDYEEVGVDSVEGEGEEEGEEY
T1 sequence (Q9BVA1 whole entry partner): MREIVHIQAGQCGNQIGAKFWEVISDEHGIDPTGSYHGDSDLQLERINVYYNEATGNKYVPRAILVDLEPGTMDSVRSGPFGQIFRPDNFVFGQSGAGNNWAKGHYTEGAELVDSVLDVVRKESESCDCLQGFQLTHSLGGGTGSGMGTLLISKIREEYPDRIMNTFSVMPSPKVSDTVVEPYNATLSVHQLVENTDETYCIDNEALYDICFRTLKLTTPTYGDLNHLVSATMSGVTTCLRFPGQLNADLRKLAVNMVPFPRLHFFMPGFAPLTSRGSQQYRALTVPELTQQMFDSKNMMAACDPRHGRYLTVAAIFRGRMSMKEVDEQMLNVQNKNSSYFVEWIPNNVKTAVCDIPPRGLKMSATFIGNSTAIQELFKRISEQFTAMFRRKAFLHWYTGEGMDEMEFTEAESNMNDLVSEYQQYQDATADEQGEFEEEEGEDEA

| SMILES | area under the curve (in words) [1] | pharmacokinetic properties (in words) [1] | plasma concentration (in words) [1] | AUC(0-inf) [1] [ng·h/mL] | half-life [1] [h] | Cmax [1] [ng/mL] | IC50 (recombinant human KIF18A) [nM] |
| --- | --- | --- | --- | --- | --- | --- | --- |
| CCS(=O)(=O)Nc1ccc(C(=O)Nc2ccc(-c3ncn(C)n3)c(OCC(F)(F)F)c2)c(N2CCC3(CC2)CC3)c1 [Example 47, 4-(ethylsulfonamido)-N-(4-(1-methyl-1H-1,2,4-triazol-3-yl)-3-(2,2,2-trifluoroethoxy)pheny 1)-2-(6-azaspiro[2.5]octan-6-yl)benzamide] | large area under the curve | good pharmacokinetic properties | high plasma concentration | 44100 | 5.45 | 3500 | 155 |
| CCS(=O)(=O)Nc1ccc(C(=O)Nc2ccc(-c3ncccn3)c(OCC(F)(F)F)c2)c(N2CCC3(CC2)CC3)c1 [Example 53, 4-(ethylsulfonamido)-N-(4-(pyrimidin-2-yl)-3-(2,2,2-trifluoroethoxy)phenyl)-2-(6-azaspiro[2.5]octan-6-yl)benzamide] | large area under the curve | good pharmacokinetic properties | high plasma concentration | 83700 | 12.1 | 5790 | 142 |
